Format in all cases: physicochemical
Series [1] can be described thus: Thermodynamic solubility in FeSSIF. Particulars: for Solubility in FeSSiF / solubility at 24 h: fed state simulated intestinal fluid (FeSSIF), equilibrated at 25° C. for 24 hours; for XRPD of residue: residue of the FeSSIF solubility test, analysed by XRPD as a damp solid. Here is the method: Solubility was determined by suspending sufficient compound in fed state simulated intestinal fluid (FeSSIF) to give a maximum final concentration of >3 mg/ml of the parent free-form of the compound. The suspension was equilibrated at 25° C. for 24 hours then the pH was measured. The suspension was then filtered through a glass fibre C filter. The residue was analysed by XRPD as a damp solid. The filtrate was diluted by an appropriate factor prior to analysis by HPLC. Quantitation by HPLC was performed with reference to a standard solution of approximately 0.2 mg/ml in DMSO. Different volumes of the standard, diluted and undiluted sample solutions were injected. The solubility was calculated using the peak areas determined by integration of the peak found at the same retention time as the principal peak in the standard injection. Analysis was performed on an Agilent HP1100 series system equipped with a diode array detector and using ChemStation software vB.04.03.

Series [2] can be described thus: Stability post-storage at 40° C./75% RH assessed by XRPD. Particulars: for Stability post-storage at 40° C./75% RH: form change assessed by XRPD. Here is the method:
(§1) Representative samples for the twenty-six forms were further analysed by NMR/IC and DSC. The stability of the samples after storage at 40° C./75% RH was also assessed by XRPD. Solubility in FeSSIF media was determined for selected samples. […] IC was employed to determine the molar equivalence for inorganic counterions, sulphate and phosphate.

Series [3] is described as follows: Thermal stability from onset of DSC events. Particulars: onsets of DSC events greater than 200° C. How it is done: DSC data were collected on a Mettler DSC 823E equipped with a 34 position auto-sampler. The instrument was calibrated for energy and temperature using certified indium. Typically, 0.9-6 mg of each sample, in a pin-holed aluminum pan, was heated at 10° C./min from 25° C. to 350° C. A nitrogen purge at 50 ml/min was maintained over the sample. The instrument control and data analysis software was STARe v12.1.
The twenty remaining forms have thermal events occurring from as low as ˜30° C. These may be solvated/hydrated forms.

Series [4] can be described thus: Salt screen assessment compared to the HCl salt. How it is done: as §1
Series [5] is described as follows: Gravimetric vapor sorption (GVS). Particulars: 25° C. How it is done:
Sorption isotherms were obtained using a SMS DVS Intrinsic moisture sorption analyzer, controlled by DVS Intrinsic Control software v1.0.1.2 (or v 1.0.1.3). The sample temperature was maintained at 25° C. by the instrument controls. The humidity was controlled by mixing streams of dry and wet nitrogen, with a total flow rate of 200 ml/min. The relative humidity was measured by a calibrated Rotronic probe (dynamic range of 1.0-100% RH), located near the sample. The weight change, (mass relaxation) of the sample as a function of % RH was constantly monitored by the microbalance (accuracy±0.005 mg). Approximately 13 mg of sample was placed in a tared mesh stainless steel basket under ambient conditions. The sample was loaded and unloaded at 40% RH and 25° C. (typical room conditions). A moisture sorption isotherm was performed as outlined below (two scans giving one complete cycle). The standard isotherm was performed at 25° C. at 10% RH intervals over a 0%-90% RH range. Data analysis was carried out using Microsoft Excel using DVS Analysis Suite v6.2 (or 6.1 or 6.0). The sample was recovered after completion of the isotherm and re-analyzed by XRPD.

This is an account of results in patent US10047069B2, “Compositions comprising an inhibitor of lysine specific demethylase-1” (Celgene Quanticel Research, Inc., priority 2015, dated 2018).

≈ marks a conversion by molar mass, not a printed value.

In the case of `COc1ccc(-c2c(-c3ccc(C#N)c(F)c3)nc(N3CCC(N)CC3)n(C)c2=O)cc1F` [BSA 1, 4-[2-(4-aminopiperidin-1-yl)-5-(3-fluoro-4-methoxyphenyl)-1-methyl-6-oxo-1,6-dihydropyrimidin-4-yl]-2-fluorobenzonitrile], in series [1], the “Solubility in FeSSiF” value is 840 µg/mL (≈ 1860 µM) and the XRPD of residue result is recorded as “BSA 1 - poor”. In series [2], the “Stability post-storage at 40° C./75% RH” value was “No form change”. For the same molecule, in series [3], the thermal stability result is “good thermal stability”. In addition, the “stability and solubility when compared to the HCl salt” value in series [4] was “improved stability and solubility”.
On to `COc1ccc(-c2c(-c3ccc(C#N)c(F)c3)nc(N3CCC(N)CC3)n(C)c2=O)cc1F` [PHOA 1, 4-[2-(4-aminopiperidin-1-yl)-5-(3-fluoro-4-methoxyphenyl)-1-methyl-6-oxo-1,6-dihydropyrimidin-4-yl]-2-fluorobenzonitrile], for which, in series [1], the “Solubility in FeSSiF” value was 740 µg/mL (≈ 1640 µM) and the XRPD of residue entry is “Amorphous”. For the same molecule, the “Stability post-storage at 40° C./75% RH” value in series [2] was “No form change”. Moreover, in series [3], the thermal stability result is recorded as “good thermal stability”. Further, the “stability and solubility when compared to the HCl salt” value in series [4] is “improved stability and solubility”.
As for `COc1ccc(-c2c(-c3ccc(C#N)c(F)c3)nc(N3CCC(N)CC3)n(C)c2=O)cc1F` [pTSA 1, 4-[2-(4-aminopiperidin-1-yl)-5-(3-fluoro-4-methoxyphenyl)-1-methyl-6-oxo-1,6-dihydropyrimidin-4-yl]-2-fluorobenzonitrile], in series [1], the “Solubility in FeSSiF” value is 870 µg/mL (≈ 1930 µM) and the XRPD of residue result is “pTSA 1”. Besides, the “Stability post-storage at 40° C./75% RH” value in series [2] is on record as “No form change”. The thermal stability entry in series [3] was “good thermal stability”. Also, in series [4], the “stability and solubility when compared to the HCl salt” value was “improved stability and solubility”.
As for `COc1ccc(-c2c(-c3ccc(C#N)c(F)c3)nc(N3CCC(N)CC3)n(C)c2=O)cc1F.Cl` [HCL 1, 4-[2-(4-aminopiperidin-1-yl)-5-(3-fluoro-4-methoxyphenyl)-1-methyl-6-oxo-1,6-dihydropyrimidin-4-yl]-2-fluorobenzonitrile hydrochloride], the solubility – broadly, how much of the substance goes into solution per volume – at 24 h was 740 µg/mL in series [1] (25 °C, pH 4.9, fessif, thermodynamic from solid) and 750 µg/mL in series [1] (pH 4.9, thermodynamic from solid). Besides, the XRPD of residue entry in series [1] is recorded as “Amorphous”. In series [2] (14 days, confirmed by XRPD), the “Stability after 14 days storage at 40° C./75% RH” value is reported as “Partial crystallization of a new form”. In series [2], the “Stability post-storage at 40° C./75% RH” value was “Extra peaks observed”. Besides, the “uptake at 90% RH by GVS” value in series [5] worked out at 14%.
As to `COc1ccc(-c2c(-c3ccc(C#N)c(F)c3)nc(N3CCC(N)CC3)n(C)c2=O)cc1F` [MSA 1, 4-[2-(4-aminopiperidin-1-yl)-5-(3-fluoro-4-methoxyphenyl)-1-methyl-6-oxo-1,6-dihydropyrimidin-4-yl]-2-fluorobenzonitrile], in series [1], the “Solubility in FeSSiF” value is 1010 µg/mL (≈ 2240 µM) and the XRPD of residue entry is “Largely amorphous”. Further, the “Stability post-storage at 40° C./75% RH” value in series [2] is given as “No form change”. Besides, the thermal stability result in series [3] is recorded as “good thermal stability”. The “stability and solubility when compared to the HCl salt” value in series [4] is “improved stability and solubility”.
In the case of `COc1ccc(-c2c(-c3ccc(C#N)c(F)c3)nc(N3CCC(N)CC3)n(C)c2=O)cc1F` [BA 1, 4-[2-(4-aminopiperidin-1-yl)-5-(3-fluoro-4-methoxyphenyl)-1-methyl-6-oxo-1,6-dihydropyrimidin-4-yl]-2-fluorobenzonitrile], in series [1], the “Solubility in FeSSiF” value is 880 µg/mL (≈ 1950 µM) and the XRPD of residue result is reported as “Poor crystallinity”. In addition, the “Stability post-storage at 40° C./75% RH” value in series [2] is given as “No significant”. For the same molecule, the thermal stability result in series [3] is recorded as “good thermal stability”. Besides, the “stability and solubility when compared to the HCl salt” value in series [4] was “improved stability and solubility”.
`COc1ccc(-c2c(-c3ccc(C#N)c(F)c3)nc(N3CCC(N)CC3)n(C)c2=O)cc1F` [SO4 1, 4-[2-(4-aminopiperidin-1-yl)-5-(3-fluoro-4-methoxyphenyl)-1-methyl-6-oxo-1,6-dihydropyrimidin-4-yl]-2-fluorobenzonitrile]: in series [1], the “Solubility in FeSSiF” value is 720 µg/mL (≈ 1590 µM) and the XRPD of residue entry is “Amorphous”. Moreover, in series [2], the “Stability post-storage at 40° C./75% RH” value is listed as “No form change”. Besides, the thermal stability result in series [3] is listed as “good thermal stability”. Moreover, in series [4], the “stability and solubility when compared to the HCl salt” value was “improved stability and solubility”.
